In paper PMC3158281 (Nature chemical biology, 2011):
Square brackets hold non-standard residues; d marks the D form. Ends that are not written are not given here. * marks the point of attachment. FITC = O=C1OC2(c3ccc(O)cc3Oc3cc(O)ccc32)c2ccc(NC(=S)*)cc21; Pmab = not defined here; PEG = not defined here

T1: peptide 9 (synthetic construct, not fully specified (residue 3); reading uncertain)
T1 chain: {FITC-PEG}-PLHS[Pmab]

B1: Plk3 PBD PBD (protein)
chain: WVSKWVDYSNKFGFGYQLSSRRVAVLFNDGTHMALSANRKTVHYNPTSTKHFSFSVGAVPRALQPQLGILRYFASYMEQHLMKGGDLPSVEEVEVPAPPLLLQWVKTDQALLMLFSDGTVQVNFYGDHTKLILSGWEPLLVTFVARNRSACTYLASHLRQLGCSPDLRQRLRYALRLLRDRSP

Columns and labels:
HeLa cells = assay: Mitotic arrest and apoptotic cell death in cultured HeLa cells; assay type: cell-based, human; conditions: 100 nM
peptide 9 = target: T1, peptide 9; assay: fluorescence polarization

Molecule	induction of mitotic arrest and apoptotic cell death (HeLa cells)	Kd (peptide 9) [nM]
CC[C@@H]1C(=O)N(C)c2cnc(Nc3ccc(C(=O)NC4CCN(C)CC4)cc3OC)nc2N1C1CCCC1 [BI 2536]	induced a greatly delayed, but pronounced mitotic arrest and apoptotic cell death	–
B1	–	460
